Data on 17 molecules can be found in patent publication US20250213555A1, “SUBSTITUTED TETRAHYDROFURAN ANALOGS AS MODULATORS OF SODIUM CHANNELS” (VERTEX PHARMACEUTICALS INCORPORATED, priority 2021, published 2025).

The structures appear in SMILES notation.

In the assay the target is human Nav 1.8 (Homo sapiens, UniProt Q9Y5Y9). The assay can be described thus: E-VIPR assay detecting and measuring Nav inhibition properties. The format is cell-based. As to conditions: HEK cells expressing a truncated form of human Nav 1.8; compound numbers without "*" (not marked as run in the presence of human serum); read-out: measured IC50 value in the E-VIPR Assay. An excerpt: E-VIPR Assay Detecting and Measuring Nav Inhibition Properties
Sequence of human Nav 1.8 (Q9Y5Y9 126-399 limits assumed): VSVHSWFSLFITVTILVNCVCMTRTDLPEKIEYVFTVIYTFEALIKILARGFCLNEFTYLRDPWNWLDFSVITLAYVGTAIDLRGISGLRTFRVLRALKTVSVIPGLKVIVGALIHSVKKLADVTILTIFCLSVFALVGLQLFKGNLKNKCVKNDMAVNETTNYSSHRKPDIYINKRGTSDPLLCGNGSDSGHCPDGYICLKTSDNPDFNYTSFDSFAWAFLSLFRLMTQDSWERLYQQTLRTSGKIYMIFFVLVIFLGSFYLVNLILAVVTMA
Sequence of human Nav 1.8 (Q9Y5Y9 660-890 limits assumed): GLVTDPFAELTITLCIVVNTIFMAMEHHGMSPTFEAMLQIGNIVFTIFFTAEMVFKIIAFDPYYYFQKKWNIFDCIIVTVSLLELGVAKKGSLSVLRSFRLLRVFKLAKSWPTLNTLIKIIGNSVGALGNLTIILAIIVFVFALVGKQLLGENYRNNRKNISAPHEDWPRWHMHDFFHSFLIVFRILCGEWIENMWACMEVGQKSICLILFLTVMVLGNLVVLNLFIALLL
Sequence of human Nav 1.8 (Q9Y5Y9 1148-1722 limits assumed): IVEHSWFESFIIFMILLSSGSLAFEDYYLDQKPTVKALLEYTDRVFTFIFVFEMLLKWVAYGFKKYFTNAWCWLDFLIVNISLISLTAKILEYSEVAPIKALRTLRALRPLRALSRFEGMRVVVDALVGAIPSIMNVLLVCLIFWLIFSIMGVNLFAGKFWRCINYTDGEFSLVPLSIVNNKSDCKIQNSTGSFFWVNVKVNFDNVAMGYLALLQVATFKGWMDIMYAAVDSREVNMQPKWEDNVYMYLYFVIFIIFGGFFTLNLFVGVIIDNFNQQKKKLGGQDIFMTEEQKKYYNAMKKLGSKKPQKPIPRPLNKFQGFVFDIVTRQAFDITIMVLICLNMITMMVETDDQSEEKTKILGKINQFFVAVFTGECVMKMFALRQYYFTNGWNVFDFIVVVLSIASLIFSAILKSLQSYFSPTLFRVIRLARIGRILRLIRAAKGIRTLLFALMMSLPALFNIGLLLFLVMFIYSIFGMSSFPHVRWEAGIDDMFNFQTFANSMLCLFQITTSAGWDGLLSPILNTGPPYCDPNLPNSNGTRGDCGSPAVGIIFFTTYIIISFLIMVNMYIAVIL
Sodium ion channels are voltage-dependent proteins that can be activated by inducing membrane voltage changes by applying electric fields. The electrical stimulation instrument and methods of use, referred to as E-VIPR, are described in International Publication No. WO 2002/008748 A3 and C.-J. Huang et al. Characterization of voltage-gated sodium channel blockers by electrical stimulation and fluorescence detection of membrane potential, 24 Nature Biotech. 439-46 (2006), both of which are incorporated by reference in their entirety. The instrument comprises a microtiter plate handler, an optical system for exciting the coumarin dye while simultaneously recording the coumarin and oxonol emissions, a waveform generator, a current- or voltage-controlled amplifier, and parallel electrode pairs that are inserted into assay plate wells. Under integrated computer control, this instrument passes user-programmed electrical stimulus protocols to cells within the wells of the microtiter plate.
16-20 hours prior to running the assay on E-VIPR, HEK cells expressing a truncated form of human Nav 1.8 with full channel activity were seeded into microtiter 384-well plates, pre-coated with matrigel, at a density of 25,000 cells per well. 2.5-5% KIR2.1 Bacmam virus was added to the final cell suspension before seeding into cell plates. HEK cells were grown in Dulbecco's Modified Eagle's Medium (DMEM) supplemented with 10% FBS (Fetal Bovine Serum, qualified; Sigma #F4135), 1% NEAA (Non-Essential Amino Acids, Gibco #11140), 1% HEPES (Gibco #15630), 1% Pen-Strep (Penicillin-Streptomycin; Gibco #15140) and 5 μg/ml Blasticidin (Gibco #R^210-01). Cells were expanded in vented cap cell culture flasks, with 90-95% humidity and 5% CO2.
100 mg/mL Pluronic F-127 (Sigma #P2443), in dry DMSO
Compound Plates: Corning 384-well Polypropylene Round Bottom #3656
Cell Plates: 384-well tissue culture treated plates (Greiner #781091-2B)
2.5-5% KIR 2.1 Bacmam virus (produced in-house), prepared as described in Section 3.3 of J. A. Fornwald et al., Gene Expression in Mammalian Cells Using BacMam, a Modified Baculovirus System, 1350 Methods in Molecular Biology 95-116 (2016), the entire contents of which are incorporated by reference. The concentration used can be dependent on viral titer of each batch.
5 mM DiSBAC6(3), a voltage sensitive oxonol acceptor (CAS number 169211-44-3; 5-[3-(1,3-dihexylhexahydro-4,6-dioxo-2-thioxo-5-pyrimidinyl)-2-propen-1-ylidene]-1,3-dihexyldihydro-2-thioxo-4,6 (1H,5H)-pyrimidinedione), in dry DMSO. The preparation of DiSBAC6(3) is analogous to that of DiSBAC4(3) as described in Voltage Sensing by Fluorescence Resonance Energy Transfer in Single Cells, Gonzalez, J. E. and Tsien, R. Y. (1995) Biophys. J. 69, 1272-1280.
5 mM CC2-DMPE, a commercially available membrane-bound coumarin phospholipid FRET donor (ThermoFisher Scientific catalog number K1017, CAS number 393782-57-5; tetradecanoic acid, 1,1′-[(1R)-1-[8-(6-chloro-7-hydroxy-2-oxo-2H-1-benzopyran-3-yl)-3-hydroxy-3-oxido-8-oxo-2,4-dioxa-7-aza-3-phosphaoct-1-yl]-1,2-ethanediyl] ester) was prepared in dry DMSO. See also, Improved indicators of cell membrane potential that use fluorescence resonance energy transfer, Gonzalez, J. E. and Tsien, R. Y. (1997) Chem. Biol. 4, 269-277.
Voltage Assay Background Suppression Compound (VABSC-1) is prepared in H2O (89-363 mM, range used to maintain solubility)
Human Serum (HS, Millipore #S1P1-01KL, or Sigma SLBR5469V and SLBR5470V as a 50%/50% mixture, for 25% assay final concentration)
• Sodium Chloride 160 mM (9.35 g/L), Potassium Chloride, 4.5 mM (0.335 g/L), Glucose 10 mM (1.8 g/L), Magnesium Chloride (Anhydrous) 1 mM (0.095 g/L), Calcium Chloride 2 mM (0.222 g/L), HEPES 10 mM (2.38 g/L) in water. […]
In general, IC50 refers to the midpoint of a concentration-inhibition curve. Turning to `C[C@H]1[C@@H](c2ccc(F)c(F)c2OCCN2C[C@@H]3C[C@H]2CO3)[C@H](C(=O)Nc2ccnc(C(N)=O)c2)O[C@@]1(C)C(F)(F)F` (relative stereo) [Compound 46, rel-4-((2R*,3S*,4S*,5R*)-3-(2-(2-((1S,4S)-2-oxa-5-azabicyclo[2.2.1]heptan-5-yl)ethoxy)-3,4-difluorophenyl)-4,5-dimethyl-5-(trifluoromethyl)tetrahydrofuran-2-carboxamido)picolinamide], the IC50 is less than 10 nM.
Take `COc1c([C@H]2[C@H](C(=O)Nc3cccc(C(=O)N4CCNCC4)n3)O[C@@](C)(C(F)(F)F)[C@H]2C)ccc(F)c1F` [Compound 17, (2R,3S,4S,5R)-3-(3,4-difluoro-2-methoxyphenyl)-4,5-dimethyl-N-(6-(piperazine-1-carbonyl)pyridin-2-yl)-5-(trifluoromethyl)tetrahydrofuran-2-carboxamide]: the IC50 was 10 to 100 nM.
For `COc1c([C@H]2[C@H](C(=O)Nc3ccnc(C(=O)N(C)[C@@H]4CCN(C)C4)c3)O[C@@](C)(C(F)(F)F)[C@H]2C)ccc(F)c1F` [Compound 269, 4-((2R,3S,4S,5R)-3-(3,4-difluoro-2-methoxyphenyl)-4,5-dimethyl-5-(trifluoromethyl)tetrahydrofuran-2-carboxamido)-N-methyl-N-((R)-1-methylpyrrolidin-3-yl)picolinamide] the value was less than 10 nM.
Turning to `COc1c([C@H]2[C@H](C(=O)Nc3ccnc(C(=O)N4CCC45CN(C)C5)c3)O[C@@](C)(C(F)(F)F)[C@H]2C)ccc(F)c1F` [Compound 266, (2R,3S,4S,5R)-3-(3,4-difluoro-2-methoxyphenyl)-4,5-dimethyl-N-(2-(6-methyl-1,6-diazaspiro[3.3]heptane-1-carbonyl)pyridin-4-yl)-5-(trifluoromethyl)tetrahydrofuran-2-carboxamide], the half-inhibitory concentration (IC50) fell in the range of 10 to 100 nM.
As to `COc1c([C@H]2[C@H](C(=O)Nc3ccnc(C(=O)N4CCN(C)[C@@H]5C[C@@H]54)c3)O[C@@](C)(C(F)(F)F)[C@H]2C)ccc(F)c1F` (single isomer, unassigned) [Compound 295, rel-(2R*,3S*,4S*,5R*)-3-(3,4-difluoro-2-methoxyphenyl)-4,5-dimethyl-N-(2-((1S,6R)-5-methyl-2,5-diazabicyclo[4.1.0]heptane-2-carbonyl)pyridin-4-yl)-5-(trifluoromethyl)tetrahydrofuran-2-carboxamide], the IC50 is less than 10 nM.
For `COc1c([C@H]2[C@H](C(=O)Nc3ccnc(C(=O)N(C)[C@H]4CN(C)C[C@@H]4OC)c3)O[C@@](C)(C(F)(F)F)[C@H]2C)ccc(F)c1F` [Compound 286, 4-((2R,3S,4S,5R)-3-(3,4-difluoro-2-methoxyphenyl)-4,5-dimethyl-5-(trifluoromethyl)tetrahydrofuran-2-carboxamido)-N-((3S,4S)-4-methoxy-1-methylpyrrolidin-3-yl)-N-methylpicolinamide] the value was less than 10 nM; for `C[C@H]1[C@@H](c2ccc(F)c(F)c2OCCCC#N)[C@H](C(=O)Nc2ccnc(C(N)=O)c2)O[C@@]1(C)C(F)(F)F` [Compound 76, 4-((2R,3S,4S,5R)-3-(2-(3-cyanopropoxy)-3,4-difluorophenyl)-4,5-dimethyl-5-(trifluoromethyl)tetrahydrofuran-2-carboxamido)picolinamide], less than 10 nM; for `C[C@H]1[C@@H](c2ccc(F)c(F)c2OC[C@H]2C[C@](O)(C(F)(F)F)C2)[C@H](C(=O)Nc2ccnc(C(N)=O)c2)O[C@@]1(C)C(F)(F)F` [Compound 7, 4-((2R,3S,4S,5R)-3-(3,4-difluoro-2-(((1s,3R)-3-hydroxy-3-(trifluoromethyl)cyclobutyl)methoxy)phenyl)-4,5-dimethyl-5-(trifluoromethyl)tetrahydrofuran-2-carboxamido)picolinamide], 10 to 100 nM.
The figure for `C[C@H]1[C@@H](c2ccc(F)c(F)c2OCCCN2CC(F)C2)[C@H](C(=O)Nc2ccnc(C(N)=O)c2)O[C@@]1(C)C(F)(F)F` [Compound 133, 4-((2R,3S,4S,5R)-3-(3,4-difluoro-2-(3-(3-fluoroazetidin-1-yl)propoxy)phenyl)-4,5-dimethyl-5-(trifluoromethyl)tetrahydrofuran-2-carboxamido)picolinamide] is less than 10 nM.
For `COCCOc1c([C@@H]2C[C@](C)(C(F)(F)F)O[C@H]2C(=O)Nc2ccnc(C(N)=O)c2)ccc(F)c1F` (relative stereo) [Compound 34, rel-4-((2R,3S,5R)-3-(3,4-difluoro-2-(2-methoxyethoxy)phenyl)-5-methyl-5-(trifluoromethyl)tetrahydrofuran-2-carboxamido)picolinamide] the value was less than 10 nM; for `C[C@H]1[C@@H](c2ccc(F)c(F)c2OC2CCC(O)C2)[C@H](C(=O)Nc2ccnc(C(N)=O)c2)O[C@@]1(C)C(F)(F)F` (stereo partly drawn) [Compound 175, 4-((2R,3S,4S,5R)-3-(3,4-difluoro-2-((3-hydroxycyclopentyl)oxy)phenyl)-4,5-dimethyl-5-(trifluoromethyl)tetrahydrofuran-2-carboxamido)picolinamide], less than 10 nM; for `C=C(/C=C/Oc1c([C@H]2[C@H](C(=O)Nc3ccnc(C(N)=O)c3)O[C@@](C)(C(F)(F)F)[C@H]2C)ccc(F)c1F)C(F)(F)F` [Compound 172, 4-((2R,3S,4S,5R)-3-(3,4-difluoro-2-(((E)-3-(trifluoromethyl)buta-1,3-dien-1-yl)oxy)phenyl)-4,5-dimethyl-5-(trifluoromethyl)tetrahydrofuran-2-carboxamido)picolinamide], 10 to 100 nM.
Take `C[C@H]1[C@@H](c2ccc(F)c(F)c2OCCN2CCCOCC2)[C@H](C(=O)Nc2ccnc(C(N)=O)c2)O[C@@]1(C)C(F)(F)F` [Compound 108, 4-((2R,3S,4S,5R)-3-(2-(2-(1,4-oxazepan-4-yl)ethoxy)-3,4-difluorophenyl)-4,5-dimethyl-5-(trifluoromethyl)tetrahydrofuran-2-carboxamido)picolinamide]: the half-inhibitory concentration (IC50) fell in the range of 10 to 100 nM.
`C[C@@H]1CN(CCOc2c([C@H]3[C@H](C(=O)Nc4ccnc(C(N)=O)c4)O[C@@](C)(C(F)(F)F)[C@H]3C)ccc(F)c2F)CCO1` [Compound 109, 4-((2R,3S,4S,5R)-3-(3,4-difluoro-2-(2-((R)-2-methylmorpholino)ethoxy)phenyl)-4,5-dimethyl-5-(trifluoromethyl)tetrahydrofuran-2-carboxamido)picolinamide]: the half-maximal inhibitory concentration (IC50) was less than 10 nM.
For `Cc1cnc(C(N)=O)cc1NC(=O)C1OC(C)(C(F)(F)F)C(C)C1c1ccc(F)c(F)c1OC1CC(O)C1` (centres unmarked) [Compound 203] the value was 10 to 100 nM; for `C[C@H]1[C@@H](c2ccc(F)c(F)c2OCC2COC2)[C@H](C(=O)Nc2ccnc(C(N)=O)c2)O[C@@]1(C)C(F)(F)F` [Compound 70, 4-((2R,3S,4S,5R)-3-(3,4-difluoro-2-(oxetan-3-ylmethoxy)phenyl)-4,5-dimethyl-5-(trifluoromethyl)tetrahydrofuran-2-carboxamido)picolinamide], less than 10 nM; for `COc1c([C@H]2[C@H](C(=O)Nc3nccc(C(=O)N4CCNCC4)n3)O[C@@](C)(C(F)(F)F)[C@H]2C)ccc(F)c1F` [Compound 20, (2R,3S,4S,5R)-3-(3,4-difluoro-2-methoxyphenyl)-4,5-dimethyl-N-(4-(piperazine-1-carbonyl)pyrimidin-2-yl)-5-(trifluoromethyl)tetrahydrofuran-2-carboxamide], 10 to 100 nM.
